According to patent publication US4708966A, “Novel anti-inflammatory agents, pharmaceutical compositions and methods for reducing inflammation” (The Procter & Gamble Company, priority 1986, dated 1987):

System: adjuvant arthritis (modified Freund's adjuvant)
Experiment: Adjuvant Arthritis - Therapeutic
Type: in vivo, Male Sprague-Dawley rats
Conditions: 0.5 mg/kg, 1 x/day, oral, days 20 through 28
Description: Adjuvant Arthritis Methodology
Male Sprague-Dawley rats weighing 167-170 gm are allowed to acclimate to the laboratory for at least 3 days. Ten rats are then assigned to the healthy control group and the remaining rats are assigned to the arthritic group. On day 0, the rats in the arthritic group are injected subcutaneously in the middle of their tail with a modified Freund's adjuvant (MFA) at a dosage of 0.05 ml/100 gm body weight. The MFA is made by grinding Mycobacterium butyricum (Mb) and then mixing with mineral oil at a concentration of 10 mg Mb/ml of mineral oil. This is mixed in an Omni mixer for 45 minutes.
Paw volumes and body weights are determined on days -1, 6, 13, 19, 26, and 29. On day 19, paw volume changes from day -1 are determined for the arthritic group. The rats with paw volume changes≥0.50 ml but ≤2.50 ml are randomized by paw volume changes into the treatment groups on day 20. […] On day 29, two representative rats from each treatment group are photographed, paw volumes and body weights are determined, and then the rats are sacrificed with CO2 and x-rays are taken.
The radiographs are used to grade bone resorption. Bone resorption is graded in 20 areas of the fore and hind paws. The areas for grading on the hind paw are: distal femur end, proximal tibia and tibula, distal end of the tibia and the small bone under the tibia, calcaneous, tarsus, and metatarsus. The areas on the fore paws are: radius, ulna, carpus, and metacarpus. Each area is given a grade of 0 (no resorption) or 1 (resorption) for possible grade of 20 of each animal.

## COc1ccc2c(c1)c(CC(=O)O)c(C)n2C(=O)c1ccc(Cl)cc1 [Indomethacin, reference compound]
  Body Weights % Increase: 7%
  Bone Resorption % Inhibition: 15%
  Paw Volume % Decrease: 43%
